From ChEMBL document CHEMBL2028040, “Malaria Box”

Key:
Trypanosoma cruzi = test: MMV: Inhibition of Trypanosoma cruzi (Tulahuen C4 LacZ) (Chagas in vitro).; assay type: functional, organism-based
Leishmania infantum = test: MMV: Inhibition of Leishmania infantum (MHOM/MA/BE/67) in vitro.; assay type: functional, organism-based
[1] = system: Trypanosoma brucei brucei; test: MMV: Inhibition of Trypanosoma brucei brucei (Squib 427) (HAT in vitro).; assay type: functional, organism-based
Plasmodium falciparum [2] = test: MMV: Inhibition of Plasmodium falciparum 3D7 at 2uM compound concentration.; assay type: functional
[3] = MMV: Cytotoxicity against human fibroblasts (MRC-5) cells.; details: MRC-5 cells (human fibroblasts)
[4] = system: Trypanosoma brucei rhodesiense; test: MMV: Inhibition of Trypanosoma brucei rhodesiense (STIB 900) (HAT in vitro).; assay type: functional, organism-based
Plasmodium falciparum [5] = test: MMV: Inhibition of Plasmodium falciparum K1 (EC50).; assay type: functional, organism-based
Plasmodium falciparum [6] = test: MMV: Inhibition of Plasmodium falciparum 3D7 at 5uM compound concentration.; assay type: functional
Plasmodium falciparum [7] = test: MMV: Inhibition of Plasmodium falciparum 3D7 (EC50).; assay type: functional, organism-based

Row | SMILES | IC50 (Trypanosoma cruzi) [µM] | IC50 (Leishmania infantum) [µM] | IC50 [1] [µM] | inhibition at 2 µM (Plasmodium falciparum [2]) [%] | IC50 [3] [µM] | IC50 [4] [µM] | EC50 (Plasmodium falciparum [5]) [µM] | inhibition at 5 µM (Plasmodium falciparum [6]) [%] | EC50 (Plasmodium falciparum [7]) [µM]
1 | COc1ccc2sc(N(Cc3cccnc3)C(=O)c3ccc(C#N)cc3)nc2c1 | 5.5 | > 32 | > 32 | 89 | > 32 | 16.1 |  |  | 
2 | CCOc1ccc(N2C(N)=NC(N)=NC2(C)C)cc1 | > 32 | > 32 | > 32 | 92 | 21.1 | > 32 |  |  | 
3 | Cc1cc(Nc2cccc(F)c2)nc(NCc2ccccc2)n1 | 0.919 | 2.57 | 7.58 | 97 | > 32 | 4.03 |  |  | 
4 | COc1ccc(N2CCN(C(CNC(=O)C3CCCCC3)c3ccc4c(c3)OCO4)CC2)cc1 (configuration not stated) | 25.9 | > 32 | > 32 |  | > 32 | 22.5 | 0.986 | 97 | 1.11
5 | OC1=C2C(=Nc3ccccc3SC2c2ccc(Br)cc2)c2ccccc21 (configuration not stated) | 3.62 | 4.32 | 4.09 |  | > 32 | 2.66 | 0.961 | 97 | 0.567
6 | COc1ccc(C2C(C(=O)Nc3cccc(OC)c3)c3ccccc3C(=O)N2C2CCCCC2)cc1 (configuration not stated) | 15.6 | 6.35 | 4.06 |  | > 32 | 3.7 | 1.6 | 97 | 1.18
7 | COc1cccc(O)c1CN1CCC2(CCCN(Cc3ccc(F)cc3)C2)C1 (configuration not stated) | 12.3 | 10.1 | 4.23 |  | > 32 | 1.85 | 0.375 | 95 | 0.53
8 | Cc1cc(NC(=O)C2c3ccccc3C(=O)N(CC(C)C)C2c2cccs2)no1 (configuration not stated) | 15.1 | > 32 | > 32 |  | 30.1 | 9.83 | 0.0391 | 100 | 0.0328
9 | Cc1cc(Nc2ccc(C)c(Cl)c2)n2nc(C(F)(F)F)nc2n1 | 22.9 | > 32 | > 32 |  | > 32 | 15.9 | 0.0141 | 98 | 0.00671
10 | CCOc1cc2c(cc1OCC)C(c1cc(C)c(O)c(C)c1)NCC2 (configuration not stated) | > 32 | 17.3 | 12.9 |  | > 32 | 4.06 | 0.168 | 97 | 0.683
11 | COc1ccc(-n2ccnc2SCC(=O)Nc2cc(C)ccc2C)c(OC)c1 | 24.4 | > 32 | > 32 |  | > 32 | 21 | 0.388 | 95 | 0.17
12 | CN1C=C(c2ccc3ccccc3n2)C(c2c[nH]c3ccccc23)c2ccccc21 (configuration not stated) | 0.934 | 16.2 | 3.77 |  | > 32 | 0.979 | 1.06 | 95 | 0.552
13 | CCCc1cc(O)c2c3c(c(=O)oc2c1)CN(C)CC3 | > 32 | > 32 | > 32 |  | > 32 | > 32 | 0.0807 | 97 | 0.146
14 | Cc1cccc(N2C(=O)C3C(C2=O)C2(c4ccccc4)C(=O)C3(c3ccccc3)C(c3ccc4c(c3)OCO4)=C2c2ccc3c(c2)OCO3)c1 (configuration not stated) | > 32 | > 32 | > 32 |  | > 32 | > 32 | 0.261 | 94 | 0.304
15 | Nc1ccc(-c2nc3cc(Cc4ccc5[nH]c(-c6ccc(N)cc6)nc5c4)ccc3[nH]2)cc1 | 4.54 | > 32 | 1.89 |  | 11.4 | 2.27 | 1.29 | 100 | 1.42
16 | CCCOCc1cc(CN2CCN(c3cccc(Cl)c3)CC2)c(O)c2ncccc12 | 0.954 | 1.59 | 1.02 |  | 1.67 | 0.972 | 0.362 | 97 | 0.407
17 | c1ccc(Cn2c(N=Nc3c(Nc4ccccc4)ccc4ccccc34)nc3ccccc32)cc1 | 0.136 | 3.01 | 0.88 |  | 0.389 | 0.217 | 0.048 | 96 | 0.0368
18 | COc1ccc(NC(=O)C2c3ccccc3C(=O)N(CC(C)C)C2c2cccs2)cc1Cl (configuration not stated) | > 32 | > 32 | > 32 |  | > 32 | > 32 | 0.0508 | 100 | 0.0202
19 | CCOc1cc2c(cc1OCC)C(c1cc(Cl)c(O)c(OCC)c1)NCC2 (configuration not stated) | > 32 | 17.3 | 11 |  | > 32 | 4.61 | 0.651 | 96 | 1.33
20 | CC(C)c1ccc(CNCC(O)c2ccccc2)cc1 (configuration not stated) | 10.6 | 10.2 | 1 |  | 13 | 1.01 | 0.456 | 96 | 1.26
21 | CCOC(=O)c1cn(CC)c2cc(N3CCCCC3)c(F)cc2c1=O | > 32 | > 32 | > 32 |  | > 32 | > 32 | 0.259 | 100 | 0.119
22 | CCCCCCc1cc2cc(-c3csc(C=Cc4ccccc4)n3)c(=O)oc2cc1O | 19.1 | > 32 | 13.6 |  | > 32 | 8.87 | 0.143 | 92 | 0.387
23 | CCCCc1c(CCC)c(=N)c2ccccc2n1C | 0.375 | 6.35 | 4 |  | 19.3 | 3.92 | 1.58 | 77 | 0.716
24 | OC(CNC1CCCCC1)Cn1c2ccccc2c2ccccc21 (configuration not stated) | > 32 | 16.6 | 4.15 |  | > 32 | 4.03 | 1.17 | 93 | 0.293
25 | CCCCCCn1c(=N)n(CC(O)COc2cccc(C)c2)c2ccccc21 (configuration not stated) | 3.78 | 2.54 | 1.01 |  | 4 | 0.942 | 0.7 | 98 | 1.14
26 | CC1CN(C(=O)c2sc3ccccc3c2Cl)CC(C)O1 (configuration not stated) | > 32 | > 32 | > 32 |  | > 32 | > 32 | 0.195 | 95 | 0.0255
